# Source: patent US6107291A, “Azepine or larger medium ring derivatives and methods of use” (Amgen Inc., priority 1998, dated 2000)
# Tests used:
# [1] = molecular target: Human fibroblast stromelysin (HFS) (Homo sapiens, UniProt P08254); assay: Human Fibroblast Stromelysin Assay (fluorogenic peptide substrate); format: biochemical
# Method: Human fibroblast stromelysin (HFS) activity is determined by using fluorogenic peptide substrate Dnp-Pro-b-Cyclohexyl-Ala-Gly-Cys(Me)-His-Ala-Lys-(N-methylanthranilic acid)-NH2. The N-terminus Dnp group and the C-terminus N-methyl-anthranilyl moiety (Nma) are fluorescence self-quenching until the peptide is cleaved at the Gly-Cys(me) bond. The fluorescence from the cleavage products is measured on a Bio-Tek Instrument FL500 fluorescence micro-plate reader (excitation at 360 nm, emission at 460 nm). […] The test compounds (at 100, 33 & 10 mM) are compared for their inhibition of HFS activity on the substrate against the activity of Actinonin and Ki's were determined on selected compounds.
# [2] = molecular target: Human neutrophil collagenase (HNC) (Homo sapiens, UniProt P22894); assay: Human Neutrophil Collagenase Assay (fluorogenic peptide substrate); format: biochemical
# Method: Human neutrophil collagenase (HNC) activity is determined by using fluorogenic peptide substrate Dnp-Pro-b-Cyclohexyl-Ala-Gly-Cys (Me)-His-Ala-Lys-(N-methylanthranilic acid)-NH2. The N-terminus Dnp group and the C-terminus N-methyl-anthranilyl moiety (Nma) are fluorescence self-quenching until the peptide is cleaved at the Gly-Cys(me) bond. The fluorescence from the cleavage products is measured on a Bio-Tek Instrument FL500 fluorescence micro-plate reader (excitation at 360 nm, emission at 460 nm). […] The test compounds (at 100, 33 & 10 mM) are compared for their inhibition of HNC activity on the substrate against the activity of Actinonin and Ki's were determined on selected compounds.
# TNF-α [3] = conditions: Phase II human trial, rheumatoid arthritis; cited from earlier work
# TNF-α [4] = conditions: soluble receptors for TNF-α; cited from earlier work
# Sequence of Human fibroblast stromelysin (HFS) (P08254 100-477): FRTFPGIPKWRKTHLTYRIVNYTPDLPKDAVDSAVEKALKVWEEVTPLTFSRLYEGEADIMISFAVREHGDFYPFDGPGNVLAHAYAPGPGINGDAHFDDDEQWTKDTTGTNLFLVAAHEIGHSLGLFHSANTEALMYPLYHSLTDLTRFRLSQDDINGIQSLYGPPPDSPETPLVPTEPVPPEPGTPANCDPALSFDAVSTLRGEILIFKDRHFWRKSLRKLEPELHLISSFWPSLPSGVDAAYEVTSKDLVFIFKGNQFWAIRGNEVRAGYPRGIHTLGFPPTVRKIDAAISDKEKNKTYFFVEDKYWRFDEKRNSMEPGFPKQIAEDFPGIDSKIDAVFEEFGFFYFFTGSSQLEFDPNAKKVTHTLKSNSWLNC
# Sequence of Human neutrophil collagenase (HNC) (P22894 101-467): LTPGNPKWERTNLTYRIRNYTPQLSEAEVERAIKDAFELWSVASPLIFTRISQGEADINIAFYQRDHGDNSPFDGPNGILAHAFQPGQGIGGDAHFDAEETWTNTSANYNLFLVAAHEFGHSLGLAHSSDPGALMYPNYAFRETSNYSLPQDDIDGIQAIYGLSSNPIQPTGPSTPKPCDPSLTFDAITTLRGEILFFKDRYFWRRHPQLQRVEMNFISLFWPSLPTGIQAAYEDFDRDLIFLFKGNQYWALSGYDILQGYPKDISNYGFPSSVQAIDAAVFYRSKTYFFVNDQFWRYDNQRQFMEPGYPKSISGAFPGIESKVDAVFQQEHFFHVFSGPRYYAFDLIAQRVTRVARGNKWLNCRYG
molecule,measurement,setting,value
Dnp-Pro-b-Cyclohexyl-Ala-Gly-Cys (Me)-His-Ala-Lys-(N-methylanthranilic acid)-NH2,Km,[1],0.051 µM
same,Km,[2],0.051 µM
"cA2: a monoclonal antibody specific to TNF-α, cA2",swollen joint count,TNF-α [3],improvement in swollen joint count
"TNFR-55: soluble receptors for TNF-α (protein, UniProt P19438 30-211, looked up, extracellular domain, soluble receptors for TNF-α) extracellular domain: LVPHLGDREKRDSVCPQGKYIHPQNNSICCTKCHKGTYLYNDCPGPGQDTDCRECESGSFTASENHLRHCLSCSKCRKEMGQVEISSCTVDRDTVCGCRKNQYRHYWSENLFQCFNCSLCLNGTVHLSCQEKQNTVCTCHAGFFLRENECVSCSNCKKSLECTKLCLPQIENVKGTEDSGTT",efficacy in animal models of TNF-α mediated disease states,TNF-α [4],demonstrated efficacy in animal models of TNF-α mediated disease states
